Measurements reported in DBAASP.
≈ marks a conversion by molar mass, not a printed value. Where “and” joins values, the source holds several entries; their conditions need not be identical. Equal values may be shown once. One block for each compound: values may come before it.

Assays:
Assay in all cases: ≥ marks a high value that may be exact or a test limit, other limits are often not marked, values filed in µg/mL are converted to µM
[1] = test system: Staphylococcus aureus 090223
[2] = test system: Escherichia coli ATCC 25922
Aeromonas sobria 090223 = test system: Aeromonas sobria 090223
[3] = test system: Staphylococcus aureus ATCC 2592
[4] = test system: Staphylococcus aureus 1349
Klebsiella pneumoniae = test system: Klebsiella pneumoniae
Escherichia coli 1342 = test system: Escherichia coli 1342
[5] = test system: Enterococcus faecium 1299
[6] = test system: Stenotrophomonas maltophilia 090223
Proteus mirabilis 090223 = test system: Proteus mirabilis 090223
Candida glabrata 0902 = test system: Candida glabrata 0902
[7] = test system: Nocardia asteroides 090312
[8] = test system: Candida albicans ATCC 2002
Acinetobacter baumannii = test system: Acinetobacter baumannii
[9] = test system: Aspergillus flavus KCTC 7375
[10] = test system: Staphylococcus aureus KCTC 1621
[11] = test system: Serratia marcescens KCTC 1299
[12] = test system: Bacillus subtilis KCTC 3068
[13] = test system: Candida albicans KCTC 7121
[14] = test system: Streptococcus pyogenes KCTC 3096
[15] = test system: Trichosporon beigelii KCTC 7251
[16] = test system: Fusarium oxysporum KCTC 6084
[17] = test system: Escherichia coli KCTC 1682
[18] = test system: Pseudomonas aeruginosa KCTC 1637
[19] = test system: Salmonella typhimurium KCTC 1926
[20] = test system: Proteus vulgaris NCTC 4635
[21] = test system: Staphylococcus aureus ATCC 6538
[22] = test system: Pseudomonas aeruginosa ATCC 9027
[23] = test system: Bacillus subtilis ATCC 9372
[24] = test system: Escherichia coli ATCC 8739
[25] = test system: Staphylococcus aureus AB94004
[26] = test system: Bacillus thuringiensis AB92037
Staphylococcus sp. = test system: Staphylococcus sp.
Escherichia coli AB94012 = test system: Escherichia coli AB94012
[27] = test system: Pseudomonas aeruginosa AB93066
[28] = test system: Bacillus subtilis AB91021
Escherichia coli K-12 = test system: Escherichia coli K-12
[29] = test system: Salmonella enterica subsp. enterica serovar Typhimurium LT2
[30] = test system: Salmonella enterica serovar Minnesota 1114W
[31] = test system: Salmonella typhimurium 1102
[32] = test system: Salmonella enterica serovar Minnesota R595
Candida albicans M9 = test system: Candida albicans M9
[33] = test system: Staphylococcus aureus 209P
[34] = test system: Staphylococcus aureus ATCC 25923
Escherichia coli DC2 = test system: Escherichia coli DC2
Bacillus cereus = test system: Bacillus cereus
Escherichia coli = test system: Escherichia coli
Bacillus anthracis = test system: Bacillus anthracis
Staphylococcus aureus = test system: Staphylococcus aureus

MIC [1]: 2.06 µM (≈ 4.7 µg/mL)
MIC [2]: 32.9 µM (≈ 74.9 µg/mL)
MIC (Aeromonas sobria 090223): 8.25 µM (≈ 18.8 µg/mL)
MIC [3]: 8.25 µM (≈ 18.8 µg/mL)
MIC [4]: 16.5 µM (≈ 37.5 µg/mL)
MIC (Klebsiella pneumoniae): 32.9 µM (≈ 74.9 µg/mL)
MIC (Escherichia coli 1342): 4.12 µM (≈ 9.39 µg/mL)
MIC [5]: 2.06 µM (≈ 4.7 µg/mL)
MIC [6]: 4.12 µM (≈ 9.39 µg/mL)
MIC (Proteus mirabilis 090223): 8.25 µM (≈ 18.8 µg/mL)
MIC (Candida glabrata 0902): ≥ 32.9 µM
MIC [7]: 8.25 µM (≈ 18.8 µg/mL)
MIC [8]: 1.01 µM (≈ 2.3 µg/mL)
MIC (Acinetobacter baumannii): 8.25 µM (≈ 18.8 µg/mL)
Compound: CC[C@H](C)[C@@H]1NC(=O)[C@H](CCSC)NC(=O)[C@@H](NC(=O)[C@H](CC(C)C)NC(=O)[C@H](CC(C)C)NC(=O)[C@H](CO)NC(=O)[C@@H]2CCCN2C(=O)[C@H](CC(C)C)NC(=O)[C@H](CC(C)C)NC(=O)[C@H](CCCCN)NC(=O)[C@@H](NC(=O)[C@@H](NC(=O)[C@H](C)NC(=O)CNC(=O)[C@H](CC(C)C)NC(=O)[C@H](C)NC(=O)[C@@H](N)Cc2ccccc2)C(C)C)[C@@H](C)O)CSSC[C@@H](C(=O)O)NC(=O)[C@H](CCCCN)NC(=O)[C@H](CCCN=C(N)N)NC(=O)[C@H]([C@@H](C)O)NC1=O [FALGAVTKLLPSLLCMITRKC]

MIC [9]: ≥ 50 µM
MIC [10]: 1.56 µM (≈ 3.59 µg/mL)
MIC [11]: 6.25 µM (≈ 14.4 µg/mL)
MIC [12]: 0.78 µM (≈ 1.79 µg/mL)
MIC [13]: ≥ 50 µM
MIC [14]: 6.25 µM (≈ 14.4 µg/mL)
MIC [15]: 25 µM (≈ 57.5 µg/mL)
MIC [16]: ≥ 50 µM
MIC [17]: 6.25 µM (≈ 14.4 µg/mL)
MIC [18]: 1.56 µM (≈ 3.59 µg/mL)
MIC [19]: 3.13 µM (≈ 7.2 µg/mL)
Compound: CC[C@H](C)[C@H](NC(=O)[C@@H]1CCCN1C(=O)[C@H](CCCCN)NC(=O)[C@H](Cc1ccccc1)NC(=O)[C@H](CC(C)C)NC(=O)[C@H](Cc1cnc[nH]1)NC(=O)[C@H](CC(C)C)NC(=O)[C@H](C)NC(=O)[C@H](CCCCN)NC(=O)[C@H](CCCCN)NC(=O)[C@@H](N)Cc1ccccc1)C(=O)N[C@@H](CCCCN)C(=O)N[C@@H](CCCCN)C(=O)N[C@@H](Cc1ccccc1)C(=O)N[C@@H](CC(C)C)C(=O)N[C@@H](CCCCN)C(=O)N[C@@H](Cc1c[nH]c2ccccc12)C(=O)N[C@@H](CCCCN)C(N)=O [FKKALHLFKPIKKFLKWK]

MIC [20]: ≥ 183 µM
MIC [21]: 22.8 µM (≈ 32 µg/mL)
MIC [22]: 183 µM (≈ 256 µg/mL)
MIC [23]: 5.71 µM (≈ 8 µg/mL)
MIC [24]: ≥ 45.7 µM
Compound: CC[C@H](C)[C@H](NC(=O)[C@@H](NC(=O)[C@H](CO)NC(=O)[C@H](C)NC(=O)[C@@H](NC(=O)[C@H](CCCCN)NC(=O)[C@H](CCCCN)NC(=O)[C@@H](NC(=O)[C@@H](NC(=O)[C@H](C)NC(=O)[C@H](Cc1ccccc1)NC(=O)[C@H](CC(C)C)NC(=O)CN)C(C)C)[C@@H](C)CC)C(C)C)C(C)C)C(=O)NCC(=O)O [GLFAVIKKVASVIG]

MIC [25]: 14.4 µM (≈ 25 µg/mL)
MIC [26]: 14.4 µM (≈ 25 µg/mL)
MIC (Staphylococcus sp.): 14.4 µM (≈ 25 µg/mL)
MIC (Escherichia coli AB94012): ≥ 57.7 µM
MIC [27]: ≥ 57.7 µM
MIC [28]: 28.9 µM (≈ 50 µg/mL)
Compound: CC[C@H](C)[C@H](NC(=O)[C@H](CC(C)C)NC(=O)[C@H](CO)NC(=O)[C@@H]1CCCN1C(=O)[C@@H](NC(=O)[C@H](CC(C)C)NC(=O)CNC(=O)[C@H](Cc1ccccc1)NC(=O)[C@@H](N)CC(C)C)[C@@H](C)CC)C(=O)NCC(=O)NCC(=O)N[C@@H](CC(C)C)C(=O)N[C@H](C(=O)N[C@@H](CO)C(=O)N[C@@H](C)C(=O)N[C@@H](Cc1ccccc1)C(=O)N[C@@H](CCCCN)C(N)=O)C(C)C [LFGLIPSLIGGLVSAFK]

MIC (Escherichia coli K-12): 0.982 µM (≈ 2.22 µg/mL)
MIC [29]: 0.982 µM (≈ 2.22 µg/mL)
MIC [21]: 5.66 µM (≈ 12.8 µg/mL)
MIC [30]: 2.78 µM (≈ 6.29 µg/mL)
MIC [2]: 0.25 µM (≈ 0.566 µg/mL)
MIC [31]: 0.982 µM (≈ 2.22 µg/mL)
MIC [32]: 0.705 µM (≈ 1.6 µg/mL)
MIC (Candida albicans M9): 1.37 µM (≈ 3.09 µg/mL)
MIC [33]: 2.78 µM (≈ 6.29 µg/mL)
MIC [34]: 5.51 µM and 2 µM
MIC (Escherichia coli DC2): 0.707 µM (≈ 1.6 µg/mL)
Compound: CC[C@H](C)[C@@H]1NC(=O)CNC(=O)[C@H](CCCN=C(N)N)NC(=O)[C@H](Cc2ccc(O)cc2)NC(=O)[C@@H]2CSSC[C@H](NC1=O)C(=O)N[C@@H](Cc1ccc(O)cc1)C(=O)N[C@@H](CCCN=C(N)N)C(=O)N[C@@H](CCCCN)C(=O)N[C@H](C(=O)N[C@@H](CCCN=C(N)N)C(N)=O)CSSC[C@H](NC(=O)[C@H](Cc1c[nH]c3ccccc13)NC(=O)[C@@H](N)CCCN=C(N)N)C(=O)N[C@@H](Cc1ccccc1)C(=O)N[C@@H](CCCN=C(N)N)C(=O)N[C@@H](C(C)C)C(=O)N2 [RWCFRVCYRGICYRKCR]

Compound: CC[C@H](C)[C@H](NC(=O)[C@H](Cc1cnc[nH]1)NC(=O)[C@@H](N)[C@@H](C)O)C(=O)N[C@@H](Cc1cnc[nH]1)C(=O)N[C@@H](CCSC)C(=O)N[C@@H](CC(N)=O)C(=O)N[C@@H](C)C(=O)N[C@@H](CCCN=C(N)N)C(=O)N[C@@H](CC(C)C)C(=O)N[C@@H](CC(C)C)C(=O)N[C@H](C(=O)N[C@@H](CCCN=C(N)N)C(=O)N[C@@H](CO)C(=O)N1CCC[C@H]1C(=O)N[C@@H](Cc1ccccc1)C(=O)N[C@H](C(=O)N[C@@H](CC(=O)O)C(=O)N1CCC[C@H]1C(=O)N[C@@H](CCC(N)=O)C(=O)N[C@@H](CC(C)C)C(=O)O)[C@@H](C)O)[C@@H](C)CC [THIHMNARLLIRSPFTDPQL]
MIC (Bacillus cereus): ≥ 108 µM
MIC (Escherichia coli): > 108 µM
MIC (Bacillus anthracis): ≥ 108 µM
MIC (Staphylococcus aureus): > 108 µM
